Laboratory results published in patent publication US20220041583A1, “IMMUNOMODULATORS, COMPOSITIONS AND METHODS THERE OF” (BETTA PHARMACEUTICALS CO., LTD, priority 2018, published 2022).

What was measured:
Pharmacokinetic Assay = assay type: in vivo; conditions: rat; male rats, single oral (intragastric) dose 25 mg/kg, plasma
Procedure: Healthy adult male rats were subjected to single-dose of the test compounds with 10% DMSO, 10% Kolliphor® HS 15 and 80% Saline as excipients, and the rats were giving oral administration (intragastric administration) with the compounds at a dose of 25 mg/kg, Before the experiment, the animals were fasted overnight, and the fasting time last from 12 hrs prior to the administration to 4 hrs after the administration. Time of blood collection: 15 min, 30 min, 1 h, 2 h, 4 h, 7 h, 24 h. Approximately 0.3 mL of whole blood was collected from retro-orbital venous sinus, and placed into tubes that contained EDTA as an anticoagulant. The samples were centrifuged at 4° C. and 4000 rpm for 5 min. The plasma was transferred into centrifuge tubes, and stored at −20° C. till being analyzed. Concentrations of test compounds in the plasma samples were analyzed with liquid chromatography-tandem mass spectrometry (LC-MS/MS). Plasma concentration-time data of individual animals was analyzed using WinNonlin (version 4.1; Pharsight) software. Non-compartmental model was introduced in concentration analysis. The pharmacokinetic parameters of the test compounds were calculated.

PD-1/PD-L1 = target: T1, PD-1/PD-L1 (Homo sapiens, UniProt Q9NZQ7); test: PD-1/PD-L1 homogenous time-resolved fluorescence (HTRF) binding assay
T1 construct: Recombinant human PD-L1 protein (19-238) with a His-tag at the C-terminus; purchased AcroBiosystems PD1-H5229 (PD-L1); PD1-H5257 (PD-1)
Procedure: Resolved Fluorescence (HTRF) Binding Assay
The assays were conducted in a standard black 384-well polystyrene plate with a final volume of 20 μL. Inhibitors were first serially diluted in DMSO and then added to the plate wells before the addition of other reaction components. The final concentration of DMSO in the assay was 1%. The assays were carried out at 25° C. in the PBS buffer (pH 7.4) with 0.05% Tween-20 and 0.1% BSA. Recombinant human PD-L1 protein (19-238) with a His-tag at the C-terminus was purchased from AcroBiosy stems (PD1-H5229). Recombinant human PD-1 protein (25-167) with Fc tag at the C-terminus was also purchased from AcroBiosystems (PD1-H5257). PD-L1 and PD-1 proteins were diluted in the assay buffer and 10 μL was added to the plate well. Plates were centrifuged and proteins were preincubated with inhibitors for 40 min. The incubation was followed by the addition of 10 μL of HTRF detection buffer supplemented with Europium cryptate-labeled anti-human IgG (PerkinElmer-AD0212) specific for Fc and anti-His antibody conjugated to SureLight®-Allophycocyanin (APC, PerkinElmer-AD0059H). After centrifugation, the plate was incubated at 25° C. for 60 min. Before reading on a PHERAstar FS plate reader (665 nm/620 nm ratio). Final concentrations in the assay were […] PD1, 10 nM PD-L1, 1 nM europium anti-human IgG and 20 nM anti-His-Allophycocyanin. IC50 determination was performed by fitting the curve of percent control activity versus the log of the inhibitor concentration using the GraphPad Prism 5.0 software.

T1 sequence (Q9NZQ7 19-238): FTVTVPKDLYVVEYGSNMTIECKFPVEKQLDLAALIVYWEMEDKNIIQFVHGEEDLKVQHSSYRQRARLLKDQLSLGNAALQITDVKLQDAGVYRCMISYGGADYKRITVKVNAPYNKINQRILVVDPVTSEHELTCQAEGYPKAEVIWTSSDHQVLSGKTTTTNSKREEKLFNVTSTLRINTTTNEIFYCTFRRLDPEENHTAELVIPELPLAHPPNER

Row | AUC (Pharmacokinetic Assay) | Cmax (Pharmacokinetic Assay) | Tmax (Pharmacokinetic Assay) | half-life (Pharmacokinetic Assay) | IC50 (PD-1/PD-L1; Table 6, class symbols) | IC50 (PD-1/PD-L1; Table 6, numeric values) | Compound
1 | 5.84 µg·h/mL | 881 ng/mL | 0.5 h | 3.42 h | – | – | Cc1c(-c2ccccc2)cccc1-c1nc2cc(CN3CCCC[C@H]3C(=O)O)c(OCC#N)cc2o1 [Com. EX. No. 1, 1-((6-(cyanomethoxy)-2-(2-methyl-[1,1′-biphenyl]-3-yl)benzo[d]oxazol-5-yl)methyl)piperidine-2-carboxylic acid, reference compound]
2 | 5.15 µg·h/mL | 329 ng/mL | 4 h | 14.4 h | – | – | COc1cc2oc(-c3cccc(-c4ccccc4)c3C)nc2cc1CNCCO [Com. EX. No. 2, 2-(((6-methoxy-2-(2-methyl-[1,1′-biphenyl]-3-yl)benzo[d]oxazol-5-yl)methyl)amino)ethan-1-ol, reference compound]
3 | 125 µg·h/mL | 12200 ng/mL | 1 h | 17.7 h | 0.1 to 10 nM | – | CSc1cc2oc(-c3cccc(-c4ccccc4)c3C)nc2cc1CN1CCC[C@H]1C(=O)O [Example 2, ((2-(2-methyl-[1,1′-biphenyl]-3-yl)-6-(methylthio)benzo[d]oxazol-5-yl)methyl)-L-proline]
4 | 74.5 µg·h/mL | 8270 ng/mL | 1 h | 7.52 h | – | 1.8 nM | Cc1c(-c2ccccc2)cccc1-c1nc2cc(CN3CCC[C@H]3C(=O)O)c(Cl)cc2o1 [Example 20, ((6-chloro-2-(2-methyl-[1,1′-biphenyl]-3-yl)benzo[d]oxazol-5-yl)methyl)-L-proline]
5 | 151 µg·h/mL | 10300 ng/mL | 1 h | 42.3 h | – | 1.8 nM | Cc1cc2oc(-c3cccc(-c4ccccc4)c3C)nc2cc1CN1CCCC[C@H]1C(=O)O [Example 22, (S)-1-((6-methyl-2-(2-methyl-[1,1′-biphenyl]-3-yl)benzo[d]oxazol-5-yl)methyl)piperidine-2-carboxylic acid]
6 | 319 µg·h/mL | 14400 ng/mL | 0.3 h | 41.2 h | – | 1.4 nM | Cc1c(-c2ccccc2)cccc1-c1nc2cc(CN3CCC[C@H]3C(=O)O)c(C(F)(F)F)cc2o1 [Example 28, ((2-(2-methyl-[1,1′-biphenyl]-3-yl)-6-(trifluoromethyl)benzo[d]oxazol-5-yl)methyl)-L-proline]
7 | 201 µg·h/mL | 23300 ng/mL | 1 h | 4.27 h | 0.1 to 10 nM | – | Cc1c(-c2ccccc2)cccc1-c1nc2cc(CN3CCCC[C@H]3C(=O)O)c(OC(F)F)cc2o1 [Example 29, (S)-1-((6-(difluoromethoxy)-2-(2-methyl-[1,1′-biphenyl]-3-yl)benzo[d]oxazol-5-yl)methyl)piperidine-2-carboxylic acid]
8 | 119 µg·h/mL | 10200 ng/mL | 0.5 h | 9.3 h | 0.1 to 10 nM | – | Cc1c(-c2ccccc2)cccc1-c1nc2cc(CN3CCC[C@H]3C(=O)O)c(OC(F)F)cc2o1 [Example 36, ((6-(difluoromethoxy)-2-(2-methyl-[1,1′-biphenyl]-3-yl)benzo[d]oxazol-5-yl)methyl)-L-proline]
9 | 121 µg·h/mL | 31000 ng/mL | 1 h | 10.8 h | – | 1.1 nM | Cc1c(-c2ccccc2)cccc1-c1nc2cc(CN3CCOC[C@H]3C(=O)O)c(OC(F)F)cc2o1 [Example 39, (S)-4-((6-(difluoromethoxy)-2-(2-methyl-[1,1′-biphenyl]-3-yl)benzo[d]oxazol-5-yl)methyl)morpholine-3-carboxylic acid]
10 | 246 µg·h/mL | 20700 ng/mL | 2 h | 7.72 h | 10 to 100 nM | – | Cc1c(-c2nc3cc(CN4CCC[C@H]4C(=O)O)c(OC(F)F)cc3o2)cccc1-c1ccccc1F [Example 52, ((6-(difluoromethoxy)-2-(2′-fluoro-2-methyl-[1,1′-biphenyl]-3-yl)benzo[d]oxazol-5-yl)methyl)-L-proline]
11 | – | – | – | – | 100 to 1000 nM | – | Cc1c(-c2ccccc2)cccc1-c1nc2cc(CN3CCCCC3C(=O)O)c3c(c2o1)C(=O)CO3 (stereo not shown) [Example 73, 1-((2-(2-methyl-[1,1′-biphenyl]-3-yl)-8-oxo-7,8-dihydrobenzofuro[5,4-d]oxazol-5-yl)methyl)piperidine-2-carboxylic acid]
